Measurements: US8623429B2, “Stabilized anthocyanin compositions” (Omnica GmbH, priority 2007, dated 2014)

How the values were obtained:
Assay type in all cases: physicochemical
[1] = Example 1: stability of bilberry extract anthocyanosides, 4 hours at 37° C., pH 7.0, with/without DHLA or GSH (HPLC)
[2] = Example 3: stability of black currant extract anthocyanosides, 4 hours at 37° C., pH 7.0, with/without DHLA, GSH or L-cysteine (HPLC)
Description: (§1) Sample a) 60 mg black currant extract [35% anthocyanosides] (0.037 mmol anthocyanosides expressed as cyanidin-3-O-rutinoside) were added to a 100 ml flask and filled to volume with sodium phosphate buffer (5% [w/w], pH=7.0) and stirred until dissolution was complete. A 1 ml sample was taken immediately, acidified with formic acid to pH=1.0 and analyzed by HPLC for the content of anthocyanosides (Fresh Sample). The remaining solution was kept for 4 hours at 37° C. (water bath) with stirring. Thereafter samples (Blank sample), representing unprotected degradation, were taken and acidified.
Sample b) 20 mg reduced L-glutathione (0.065 mmol) were added to a 100 ml flask with 60 ml sodium phosphate buffer (5% [w/w], pH=7.0) and stirred until dissolution was complete. 60 mg black currant extract [35% anthocyanosides] (0.037 mmol anthocyanosides expressed as cyanidin-3-O-rutinoside) were then added and the flask was filled to volume with sodium phosphate buffer (5% [w/w], pH=7.0) and kept for 4 hours at 37° C. (water bath) with stirring.
Sample c) 20 mg dihydrolipoic acid (0.096 mmol) were added to a 100 ml flask with 60 ml sodium phosphate buffer (5% [w/w], pH=7.0) and stirred until dissolution was completed. 60 mg black currant extract [35% anthocyanosides] (0.037 mmol anthocyanosides expressed as cyanidin-3-O-rutinoside) were added to the flask, filled to volume with sodium phosphate buffer (5% [w/w], pH=7.0) and kept for 4 hours at 37° C. (water bath) with stirring.
Sample d) 20 mg L-cysteine acid (0.165 mmol) were added to a 100 ml flask with 60 ml sodium phosphate buffer (5% [w/w], pH=7.0) and stirred until dissolution was complete. 60 mg black currant extract [35% anthocyanosides] (0.037 mmol anthocyanosides expressed as cyanidin-3-O-rutinoside) were added to the flask, filled to volume with sodium phosphate buffer (5% [w/w], pH=7.0) and kept for 4 hours at 37° C. (water bath) with stirring.
After 4 hours samples were taken, acidified immediately with formic acid to pH=1.0 and analyzed by HPLC for the content of anthocyanosides. Degradation is expressed as decrease in peak area of individual peaks (calculated as % left after 4 hours).
(§2) Samples were prepared as outlined below in HPLC Analytical Method. Test stability samples were immediately acidified (to block degradation) and injected undiluted following the detailed description provided below.
HPLC Analytical Method (Materials, Instruments and Methods): […]

[3] = Example 5: degradation over time of black currant anthocyanosides at 37° C., pH 7.0, with/without GSH (HPLC); conditions: pH 7.0, 37° C.; for %-residual anthocyanosides (% left): 4 hours
Description: as §1, with “flask,” for “flask and”, “anthocyanosides.” for “anthocyanosides (Fresh Sample).”, “kept” for “kept for 4 hours”, “stirring and 1 ml” for “stirring. Thereafter”, “Samples),” for “sample),”, “every 15 minutes. The samples were analyzed for selected anthocyanosides by HPLC.” for “and acidified.”
Sample b) 20 mg reduced L-glutathione (0.065 mmol) were added to a 100 ml flask with 60 ml sodium phosphate buffer (5% [w/w], pH=7.0) and stirred until dissolution was complete. 60 mg black currant extract [35% anthocyanosides] (0.037 mmol anthocyanosides expressed as cyanidin-3-O-rutinoside) were added, the flask was filled to volume with sodium phosphate buffer (5% [w/w], pH=7.0) and kept for at 37° C. (water bath) with stirring. Every 15 minutes 1 ml samples were taken and analyzed for selected anthocyanosides by HPLC.
as §2

[4] = Example 9: stability of bilberry extract anthocyanosides, 4 hours at 37° C., pH 7.0, with/without L-cysteine
[5] = 20 mg reduced L-glutathione, pH 7.0, 37° C., 4 hours
[6] = 30 mg dihydrolipoic acid, pH 7.0, 37° C., 4 hours
[7] = unprotected, pH 7.0, 37° C., 4 hours

With `OC[C@H]1O[C@@H](Oc2cc3c(O)cc(O)cc3[o+]c2-c2cc(O)c(O)c(O)c2)[C@H](O)[C@@H](O)[C@@H]1O` [Dp-3O-Glc, Delphinidin 3-o-glucoside] the “% left, GSH (4 hours)” value [1, 5] was 48.3%, the “Peak Area, GSH (4 hours)” value [1, 5] was 350.8 and the “% left, DHLA (4 hours)” value [1, 6] was 57.1%. The “Peak Area, DHLA (4 hours)” value [1, 6] was 414.8, the “Peak Area, Fresh (0 hours)” value ([1]; bilberry extract 60 mg/100 ml sodium phosphate buffer pH 7.0, fresh sample) was 726.6 and the “% left, Blank (4 hours)” value [1, 7] was 6.4%. For the same compound, the “Peak Area, Blank (4 hours)” value [1, 7] was 46.3, the “Peak Area, Fresh solution” value ([2]; black currant extract 60 mg/100 ml buffer pH 7.0, fresh sample) was 1481 and the “% left, DHLA 20 mg” value ([2]; pH 7.0, 37° C., 4 hours) was 52.0%. For the same compound, the “% left, GSH 20 mg” value ([2]; pH 7.0, 37° C., 4 hours) was 50.4%, the “% left, L-cysteine 20 mg” value ([2]; pH 7.0, 37° C., 4 hours) was 36.7% and the “Peak Area, DHLA 20 mg” value ([2]; pH 7.0, 37° C., 4 hours) was 770.7. For the same compound, the “Peak Area, GSH 20 mg” value ([2]; pH 7.0, 37° C., 4 hours) was 745.6, the “Peak Area, L-cysteine 20 mg” value ([2]; pH 7.0, 37° C., 4 hours) was 543.0 and the “% left, Blank” value [2, 7] was 9.5%. The “Peak Area, Blank” value [2, 7] was 140.8, the “Peak Area” value ([3]; Blank sample, 0:00 h) was 1480.7 and the “Peak Area” value ([3]; Blank sample, 0:15 h) was 969.6. The “Peak Area” value ([3]; Blank sample, 0:30 h) was 907.9, the “Peak Area” value ([3]; Blank sample, 0:45 h) was 745.2 and the “Peak Area” value ([3]; Blank sample, 1:00 h) was 702.1. For the same compound, the “Peak Area” value ([3]; Blank sample, 1:30 h) was 605.4, the “Peak Area” value ([3]; Blank sample, 1:45 h) was 599.9 and the “Peak Area” value ([3]; Blank sample, 2:00 h) was 465.1. The “Peak Area” value ([3]; Blank sample, 2:15 h) was 449.8, the “Peak Area” value ([3]; Blank sample, 2:30 h) was 394.0 and the “Peak Area” value ([3]; Blank sample, 2:45 h) was 362.7. For the same compound, the “Peak Area” value ([3]; Blank sample, 3:00 h) was 304.8, the “Peak Area” value ([3]; Blank sample, 3:15 h) was 285.1 and the “Peak Area” value ([3]; Blank sample, 3:30 h) was 208.8. The “Peak Area” value ([3]; Blank sample, 3:45 h) was 214.5, the “Peak Area” value ([3]; Blank sample, 4:00 h) was 140.8 and the “%-residual anthocyanosides (% left)” value ([3]; Blank) was 10%. The “Peak Area” value ([3]; GSH protected sample (20 mg), 0:00 h) was 1464.0, the “Peak Area” value ([3]; GSH protected sample (20 mg), 0:15 h) was 1280.4 and the “Peak Area” value ([3]; GSH protected sample (20 mg), 0:45 h) was 1209.3. For the same compound, the “Peak Area” value ([3]; GSH protected sample (20 mg), 1:00 h) was 1219.0, the “Peak Area” value ([3]; GSH protected sample (20 mg), 1:15 h) was 1178.1 and the “Peak Area” value ([3]; GSH protected sample (20 mg), 1:45 h) was 1051.8. The “Peak Area” value ([3]; GSH protected sample (20 mg), 2:00 h) was 1077.0, the “Peak Area” value ([3]; GSH protected sample (20 mg), 2:15 h) was 981.9 and the “Peak Area” value ([3]; GSH protected sample (20 mg), 2:45 h) was 876.8. For the same compound, the “Peak Area” value ([3]; GSH protected sample (20 mg), 3:00 h) was 917.2, the “Peak Area” value ([3]; GSH protected sample (20 mg), 3:15 h) was 812.5 and the “Peak Area” value ([3]; GSH protected sample (20 mg), 3:45 h) was 742.7. The “Peak Area” value ([3]; GSH protected sample (20 mg), 4:00 h) was 745.6, the “Peak Area” value ([3]; GSH protected sample (20 mg), 4:15 h) was 682.0 and the “%-residual anthocyanosides (% left)” value ([3]; GSH-protected) was 51%. The “Peak Area, Fresh solution” value ([4]; bilberry extract 60 mg in buffer pH 7.0, fresh sample) was 726.6, the “% left, L-cysteine 20 mg” value ([4]; pH 7.0, 37° C., 4 hours) was 48.3% and the “Peak Area, L-cysteine 20 mg” value ([4]; pH 7.0, 37° C., 4 hours) was 350.8. The “% left, Blank” value [4, 7] was 6.4% and the “Peak Area, Blank” value [4, 7] was 46.3.
